Measured values as given in US20120329787A1, “FUNGICIDAL PYRANONES AND OXAZINONES” (E.I. DU PONT DE NEMOURS AND COMPANY, priority 2011, published 2012).

Columns and labels:
Type in all cases: in vivo
[1] = tested on: Puccinia recondita f. sp. tritici; test: Test G: wheat leaf rust, spray on wheat seedlings after inoculation (curative); settings: 200 ppm test suspension, sprayed after inoculation; for pest or weed control at 200 ppm: Puccinia recondita, 96 h, read-out: Test G rating (100 = 100% disease control, 0 = no disease control)
Source text: General protocol for preparing test suspensions for Tests A-I: the test compounds were first dissolved in acetone in an amount equal to 3% of the final volume and then suspended at the desired concentration (in ppm) in acetone and purified water (50/50 mix by volume) containing 250 ppm of the surfactant Trem® 014 (polyhydric alcohol esters). The resulting test suspensions were then used in Tests A-I. Spraying a 200 ppm test suspension to the point of run-off on the test plants was the equivalent of a rate of 500 g/ha. […] (An asterisk “*” next to the rating value indicates a 40 ppm test suspension was used.) Wheat seedlings were inoculated with a spore suspension of Puccinia recondita f. sp. tritici (the causal agent of wheat leaf rust) and incubated in a saturated atmosphere at 20° C. for 24 h, and then moved to a growth chamber at 20° C. for 2 days. At the end of this time, the test suspension was sprayed to the point of run-off, and then the seedlings were moved to a growth chamber at 20° C. for 4 days after which time visual disease ratings were made. […] A dash (-) indicates no test results. All results are for 200 ppm except where followed by an asterisk “*”, which indicates a 40 ppm.

[2] = tested on: Septoria tritici; test: Test F: wheat leaf blotch, spray on wheat seedlings the day before inoculation; settings: 200 ppm test suspension; for pest or weed control at 200 ppm: Zymoseptoria tritici, 504 h, read-out: Test F rating (100 = 100% disease control, 0 = no disease control)
Source text: General protocol for preparing test suspensions for Tests A-I: the test compounds were first dissolved in acetone in an amount equal to 3% of the final volume and then suspended at the desired concentration (in ppm) in acetone and purified water (50/50 mix by volume) containing 250 ppm of the surfactant Trem® 014 (polyhydric alcohol esters). The resulting test suspensions were then used in Tests A-I. Spraying a 200 ppm test suspension to the point of run-off on the test plants was the equivalent of a rate of 500 g/ha. […] (An asterisk “*” next to the rating value indicates a 40 ppm test suspension was used.) The test suspension was sprayed to the point of run-off on wheat seedlings. The following day, the seedlings were inoculated with a spore suspension of Septoria tritici (the causal agent of wheat leaf blotch) and incubated in a saturated atmosphere at 24° C. for 48 h, and then the seedlings were moved to a growth chamber at 20° C. for 19 additional days, after which time visual disease ratings were made. […] A dash (-) indicates no test results. All results are for 200 ppm except where followed by an asterisk “*”, which indicates a 40 ppm.

[3] = tested on: Puccinia recondita f. sp. tritici; test: Test H: wheat leaf rust, spray on wheat seedlings the day before inoculation; settings: 200 ppm test suspension, sprayed before inoculation; for pest or weed control at 200 ppm: Puccinia recondita, 168 h, read-out: Test H rating (100 = 100% disease control, 0 = no disease control)
Source text: General protocol for preparing test suspensions for Tests A-I: the test compounds were first dissolved in acetone in an amount equal to 3% of the final volume and then suspended at the desired concentration (in ppm) in acetone and purified water (50/50 mix by volume) containing 250 ppm of the surfactant Trem® 014 (polyhydric alcohol esters). The resulting test suspensions were then used in Tests A-I. Spraying a 200 ppm test suspension to the point of run-off on the test plants was the equivalent of a rate of 500 g/ha. […] (An asterisk “*” next to the rating value indicates a 40 ppm test suspension was used.) The test suspension was sprayed to the point of run-off on wheat seedlings. The following day, the seedlings were inoculated with a spore suspension of Puccinia recondita f. sp. tritici (the causal agent of wheat leaf rust) and incubated in a saturated atmosphere at 20° C. for 24 h, and then moved to a growth chamber at 20° C. for 6 days, after which time visual disease ratings were made Results for Tests A-I are given in Table A. […] A dash (-) indicates no test results. All results are for 200 ppm except where followed by an asterisk “*”, which indicates a 40 ppm.

[4] = tested on: Erysiphe graminis f. sp. tritici; test: Test I: wheat powdery mildew, spray on wheat seedlings the day before inoculation; settings: 200 ppm test suspension; for pest or weed control at 200 ppm: Blumeria graminis, 168 h, read-out: Test I rating (100 = 100% disease control, 0 = no disease control)
Source text: General protocol for preparing test suspensions for Tests A-I: the test compounds were first dissolved in acetone in an amount equal to 3% of the final volume and then suspended at the desired concentration (in ppm) in acetone and purified water (50/50 mix by volume) containing 250 ppm of the surfactant Trem® 014 (polyhydric alcohol esters). The resulting test suspensions were then used in Tests A-I. Spraying a 200 ppm test suspension to the point of run-off on the test plants was the equivalent of a rate of 500 g/ha. […] (An asterisk “*” next to the rating value indicates a 40 ppm test suspension was used.) The test suspension was sprayed to the point of run-off on wheat seedlings. The following day, the seedlings were inoculated with a spore dust of Erysiphe graminis f. sp. tritici, (the causal agent of wheat powdery mildew) and incubated in a growth chamber at 20° C. for 7 days, after which time visual disease ratings were made. […] A dash (-) indicates no test results. All results are for 200 ppm except where followed by an asterisk “*”, which indicates a 40 ppm.

[5] = tested on: Alternaria solani; test: Test B: tomato early blight, spray on tomato seedlings the day before inoculation; settings: 200 ppm test suspension; for pest or weed control at 200 ppm: Alternaria solani, 168 h, read-out: Test B rating (100 = 100% disease control, 0 = no disease control)
Source text: General protocol for preparing test suspensions for Tests A-I: the test compounds were first dissolved in acetone in an amount equal to 3% of the final volume and then suspended at the desired concentration (in ppm) in acetone and purified water (50/50 mix by volume) containing 250 ppm of the surfactant Trem® 014 (polyhydric alcohol esters). The resulting test suspensions were then used in Tests A-I. Spraying a 200 ppm test suspension to the point of run-off on the test plants was the equivalent of a rate of 500 g/ha. […] (An asterisk “*” next to the rating value indicates a 40 ppm test suspension was used.) The test suspension was sprayed to the point of run-off on tomato seedlings. The following day, the seedlings were inoculated with a spore suspension of Alternaria solani (the causal agent of tomato early blight) and incubated in a saturated atmosphere at 27° C. for 48 h, and then moved to a growth chamber at 20° C. for 5 days, after which time visual disease ratings were made. […] A dash (-) indicates no test results. All results are for 200 ppm except where followed by an asterisk “*”, which indicates a 40 ppm.

[6] = tested on: Septoria nodorum; test: Test E: Septoria glume blotch, spray on wheat seedlings the day before inoculation; settings: 200 ppm test suspension; for pest or weed control at 200 ppm: Parastagonospora nodorum, 264 h, read-out: Test E rating (100 = 100% disease control, 0 = no disease control)
Source text: General protocol for preparing test suspensions for Tests A-I: the test compounds were first dissolved in acetone in an amount equal to 3% of the final volume and then suspended at the desired concentration (in ppm) in acetone and purified water (50/50 mix by volume) containing 250 ppm of the surfactant Trem® 014 (polyhydric alcohol esters). The resulting test suspensions were then used in Tests A-I. Spraying a 200 ppm test suspension to the point of run-off on the test plants was the equivalent of a rate of 500 g/ha. […] (An asterisk “*” next to the rating value indicates a 40 ppm test suspension was used.) The test suspension was sprayed to the point of run-off on wheat seedlings. […] A dash (-) indicates no test results. All results are for 200 ppm except where followed by an asterisk “*”, which indicates a 40 ppm.

[7] = tested on: Botrytis cinerea; test: Test A: tomato Botrytis, spray on tomato seedlings the day before inoculation; settings: 200 ppm test suspension; for pest or weed control at 200 ppm: Botrytis cinerea, 120 h, read-out: Test A rating (100 = 100% disease control, 0 = no disease control)
Source text: General protocol for preparing test suspensions for Tests A-I: the test compounds were first dissolved in acetone in an amount equal to 3% of the final volume and then suspended at the desired concentration (in ppm) in acetone and purified water (50/50 mix by volume) containing 250 ppm of the surfactant Trem® 014 (polyhydric alcohol esters). The resulting test suspensions were then used in Tests A-I. Spraying a 200 ppm test suspension to the point of run-off on the test plants was the equivalent of a rate of 500 g/ha. […] (An asterisk “*” next to the rating value indicates a 40 ppm test suspension was used.) The test suspension was sprayed to the point of run-off on tomato seedlings. The following day, the seedlings were inoculated with a spore suspension of Botrytis cinerea (the causal agent of tomato Botrytis) and incubated in a saturated atmosphere at 20° C. for 48 h, and then moved to a growth chamber at 24° C. for 3 additional days, after which time visual disease ratings were made. […] A dash (-) indicates no test results. All results are for 200 ppm except where followed by an asterisk “*”, which indicates a 40 ppm.

| SMILES | pest or weed control at 200 ppm [1] [%] | pest or weed control at 200 ppm [2] [%] | pest or weed control at 200 ppm [3] [%] | pest or weed control at 200 ppm [4] [%] | pest or weed control at 200 ppm [5] [%] | pest or weed control at 200 ppm [6] [%] | pest or weed control at 200 ppm [7] [%] | Test G rating (100 = 100% disease control, 0 = no disease control) [1] [%] | Test F rating (100 = 100% disease control, 0 = no disease control) [2] [%] | Test H rating (100 = 100% disease control, 0 = no disease control) [3] [%] | Test I rating (100 = 100% disease control, 0 = no disease control) [4] [%] | Test B rating (100 = 100% disease control, 0 = no disease control) [5] [%] | Test E rating (100 = 100% disease control, 0 = no disease control) [6] [%] | Test A rating (100 = 100% disease control, 0 = no disease control) [7] [%] |
| --- | --- | --- | --- | --- | --- | --- | --- | --- | --- | --- | --- | --- | --- | --- |
| COc1cc(OC)cc(-c2c(C)oc(=O)c(C)c2-c2ccc(F)cc2F)c1 [Compound 42, 4-(2,4-difluorophenyl)-5-(3,5-dimethoxyphenyl)-3,6-dimethyl-2H-pyran-2-one] | 0 | 100 | 100 | 99 | 0 | 0 | 98 |  |  |  |  |  |  |  |
| COc1cc(OC)cc(-c2c(C)oc(=O)c(C)c2-c2c(F)cc(OC)cc2F)c1 [Compound 43] |  |  |  |  |  |  |  | 98 | 100 | 100 | 100 | 100 | 100 | 100 |
| COc1cc(F)c(-c2c(C)oc(=O)c(C)c2-c2c(Cl)c(OC)cc(OC)c2Cl)c(F)c1 [Compound 44] |  |  |  |  |  |  |  | 26 | 73 | 96 | 0 | 0 | 0 | 79 |
| COc1cc(OC)cc(-c2c(-c3ccc(F)cc3Cl)c(C)oc(=O)c2C)c1 [Compound 46] |  |  |  |  |  |  |  | 79 | 100 | 100 | 99 | 98 | 95 | 100 |
| COc1cc(OC)cc(-c2c(-c3ccc(F)cc3F)c(C)oc(=O)c2C)c1 [Compound 48, 5-(2,4-difluorophenyl)-4-(3,5-dimethoxyphenyl)-3,6-dimethyl-2H-pyran-2-one] | 100 | 100 | 100 | 100 | 97 | 99 | 100 |  |  |  |  |  |  |  |
| COc1cc(F)c(-c2c(-c3cc(OC)cc(OC)c3Cl)c(C)oc(=O)c2C)c(F)c1 [Compound 49] |  |  |  |  |  |  |  | 100 | 100 | 100 | 99 | 100 | 99 | 100 |
| COc1cc(OC)cc(-c2c(-c3c(F)cccc3F)c(C)oc(=O)c2C)c1 [Compound 51] |  |  |  |  |  |  |  | 75 | 100 | 100 | 96 | 0 | 0 | 100 |
| COc1cc(OC)c(Cl)c(-c2c(-c3c(F)cccc3F)c(C)oc(=O)c2C)c1Cl [Compound 53] |  |  |  |  |  |  |  | 0 | 47 | 88 | 0 | 0 | 0 | 61 |
| COc1cc(OC)c(Cl)c(-c2c(-c3ccc(F)cc3Cl)c(C)oc(=O)c2C)c1 [Compound 54, 4-(2-chloro-3,5-dimethoxyphenyl)-5-(2-chloro-4-fluorophenyl)-3,6-dimethyl-2H-pyran-2-one] | 99 | 100 | 100 | 100 | 96 | 100 | 100 |  |  |  |  |  |  |  |
